From paper doi:10.1101/2025.11.13.687868v1 (biorxiv, 2025)

Key:
GPX1 = target: T1, GPX1 (Homo sapiens, UniProt P07203); experiment: GR-coupled NADPH fluorescence assay; type: biochemical
T1 sequence (P07203 1-203): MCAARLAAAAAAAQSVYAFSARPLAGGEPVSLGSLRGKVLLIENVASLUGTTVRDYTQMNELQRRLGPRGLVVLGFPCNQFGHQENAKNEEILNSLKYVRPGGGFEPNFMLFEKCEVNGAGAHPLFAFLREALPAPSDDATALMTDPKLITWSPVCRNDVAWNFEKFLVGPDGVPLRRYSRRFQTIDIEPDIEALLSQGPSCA

[1] = target: T2, GPX4 (purified recombinant Sec-containing human GPX4) (Homo sapiens, UniProt P36969); experiment: GR-coupled NADPH fluorescence assay; type: biochemical
T2 sequence (P36969 28-197): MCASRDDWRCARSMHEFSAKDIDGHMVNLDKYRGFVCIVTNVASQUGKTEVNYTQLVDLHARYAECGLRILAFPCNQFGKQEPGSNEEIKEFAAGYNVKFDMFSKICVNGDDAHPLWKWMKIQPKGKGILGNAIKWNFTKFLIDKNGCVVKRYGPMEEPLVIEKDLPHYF

O=C(O)CC(S)C(=O)O (centres unmarked) [thiomalic acid] was tested, and the IC50 (GPX1) was 6.7 µM and the IC50 [1] was 54.8 µM.
